# Key:
# [1] = biological target: T1, hSSTR4 (Homo sapiens (Human), UniProt P31391); assay: Radioligand competition binding, membrane homogenate; details: after being dissolved to free base forms
# Protocol: In competition experiments, the test compound, which is not labeled, competes with the binding site of a labeled ligand. The displacement of the labeled ligand by the test compound leads to a decreased signal. For the binding experiments 200 μL of membrane homogenate from one of the following protein amounts is used: hSSTR1 (40 μg/well); hSSTR2 (25 μg/well); hSSTR3 (1.5 μg/well); hSSTR4 (0.5 μg/well); hSSTR5 (25 μg/well). The homogenate is incubated with 0.05 nM of radioligand ([3-125I-Tyr]-Somatostatin-(1-14)) in addition to increasing concentrations of a test compound or vehicle (100% binding) in a total volume of 250 μL using a Hepes buffer (10 mM, EDTA 1 mM, MgCl2 5 mM, pH 7.6, BSA 0.5%, Bacitracin 0.003%, DMSO 1%) for 180 min at RT. The incubation is terminated by filtration with ice cold NaCl 0.9% through polyethyleneimine treated (0.3%) grade GF/B glass fiber filters using a cell harvester. The protein-bound radioactivity is measured in a suitable reader. The non-specific binding is defined as radioactivity bound in the presence of 1 μM Somatostatin-14 during the incubation period. The analysis of the concentration-binding curves is performed by computer-assisted nonlinear least square curve fitting method using the model of one receptor binding site.
# [2] = biological target: T1, hSSTR4; assay: cAMP assay (inhibition of forskolin-stimulated cAMP) in hSSTR4 expressing H4 cells; assay type: cell-based; details: after being dissolved to free base forms
# Protocol: The activation of the SSTR4 receptor (G coupled) causes an inhibition of intracellular cAMP after stimulation with Forskolin, which can be quantifiable by use of a suitable assay Kit and an adequate plate reader. This technique is used to characterize pharmacological effects of the SSTR4 receptor agonists by use of hSSTR4 expressing H4 cells. The compound is dissolved and diluted in DMSO. The final test solution contains 1% DMSO. The cAMP standard (Lance™ cAMP 384 Kit; PerkinElmer, Cat #AD0264) is prepared in assay buffer (HBSS with 0.1% BSA, 5 mM HEPES, […], pH 7.4) containing 1% DMSO and the cAMP standard curve is included at least on one plate. Cells are centrifuged and suspended in assay buffer (incl. 1:100 diluted Alexa Fluor® antibody). For the assay 5 μL of a cell suspension (approximately 5000 cells/well)-incl. Alexa Fluor® antibody (diluted 1:100) are added into a 384 well MTP microtiter plate excepting one row or column (depending on the plate layout), which is reserved for the standard curve. Then 2 μL of compound sample is added as concentration response curve (e.g., le-5 M to 6e-10 M), usually in triplicates. Each assay contains incubations with vehicle controls instead of compound as controls for non-inhibited cAMP generation (100% CTL; ‘high values’) and incubations with 1 μM Somatostatin as controls for full inhibition and background (0% CTL; ‘low values’). After approximately 10-15 min incubation time 3 μL Forskolin (dissolved in DMSO, final conc. 15 μM) is added. Then the plates are shaken briefly and incubated for 60 min at RT. After 60 min 10 μL of the detection mix is added into all wells followed by an additional incubation period of 1 h. The plates are read in a suitable plate reader. The analysis of the data is based on the “ratio” of the time-resolved fluorescence measurements of donor and acceptor fluorophore (Ex: 320 nm; Em1: 665 nm; Em2: 615 nm; ratio 665/615). From this ratio, cAMP concentrations are calculated from standard curve and the EC50 is estimated by least square curve fit program. […]
# T1 sequence (P31391 whole entry): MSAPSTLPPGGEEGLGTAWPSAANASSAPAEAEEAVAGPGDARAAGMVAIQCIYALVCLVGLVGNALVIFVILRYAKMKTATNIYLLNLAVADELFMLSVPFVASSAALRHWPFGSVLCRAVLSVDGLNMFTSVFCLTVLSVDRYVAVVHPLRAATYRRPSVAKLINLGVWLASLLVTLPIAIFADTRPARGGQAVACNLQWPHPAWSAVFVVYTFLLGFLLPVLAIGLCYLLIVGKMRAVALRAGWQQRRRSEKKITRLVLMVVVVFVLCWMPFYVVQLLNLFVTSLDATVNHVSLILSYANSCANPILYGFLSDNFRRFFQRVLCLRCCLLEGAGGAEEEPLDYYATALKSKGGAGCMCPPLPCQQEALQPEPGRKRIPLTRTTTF
SMILES,"Selectivity of binding to SSTR4 over SSTR1, SSTR2, SSTR3 and SSTR5 (in words) [1]",SSTR4 agonism (in words) [2]
"Cc1cccnc1OCC(C)(C)NC(=O)[C@H]1[C@@H]2CNC[C@@H]21.O=C(O)C(O)C(O)C(=O)O [Example 1, (1S,5R)-(1α,5α,6α)-N-[1,1-dimethyl-2-[(3-methyl-2-pyridyl)oxy]ethyl]-3-azabicyclo[3.1.0]hexane-6-carboxamide L-tartrate sesquihydrate]",selectively bind to SSTR4,agonists of SSTR4
"Cc1cccnc1OCC(C)(C)NC(=O)[C@H]1[C@@H]2CNC[C@@H]21.O=C(O)CC(O)(CC(=O)O)C(=O)O [Example 2, (1S,5R)-(1α,5α,6α)-N-[1,1-dimethyl-2-[(3-methyl-2-pyridyl)oxy]ethyl]-3-azabicyclo[3.1.0]hexane-6-carboxamide citrate]",selectively bind to SSTR4,agonists of SSTR4
"Cc1cccnc1OCC(C)(C)NC(=O)[C@H]1[C@@H]2CNC[C@@H]21.O=C(O)C[C@H](O)C(=O)O [Example 3, (1S,5R)-(1α,5α,6α)-N-[1,1-dimethyl-2-[(3-methyl-2-pyridyl)oxy]ethyl]-3-azabicyclo[3.1.0]hexane-6-carboxamide L-malate]",selectively bind to SSTR4,agonists of SSTR4
